From ChEMBL document CHEMBL1142788, “Synthesis and antibacterial activity of alkyl derivatives of the glycopeptide antibiotic A40926 and their amides” (2005)
Converted amounts (≈) assume the structure as drawn.

What was measured:
[1] = test system: Enterococcus faecium; assay: Minimum inhibitory concentration against vancomycin-A Enterococcus faecium in the presence of 30% bovine serum (n=1) (range = 2>128mg/l); format: functional
[2] = test system: Enterococcus faecium; assay: Minimum inhibitory concentration against vancomycin-sensitive Enterococcus faecium in the presence of 30% bovine serum(n=1); format: functional
[3] = test system: Staphylococcus epidermidis; assay: Minimum inhibitory concentration against methicillin-sensitive Staphylococcus epidermidis in the presence of 30% bovine serum; format: functional
[4] = test system: Staphylococcus epidermidis; assay: Minimum inhibitory concentration against methicillin-resistant Staphylococcus epidermidis in the presence of 30% bovine serum; format: functional
[5] = test system: Staphylococcus aureus; assay: Minimum inhibitory concentration against methicillin-resistant Staphylococcus aureus
[6] = test system: Enterococcus faecalis; assay: Minimum inhibitory concentration against vancomycin-A Enterococcus faecalis in the presence of 30% bovine serum (n=4); format: functional
[7] = test system: Enterococcus faecalis; assay: Minimum inhibitory concentration against vancomycin-sensitive Enterococcus faecalis in the presence of 30% bovine serum(n=3) (range = 0.25-1mg/l); format: functional
[8] = test system: Staphylococcus aureus; assay: Minimum inhibitory concentration against methicillin-sensitive Staphylococcus aureus without serum
[9] = test system: Staphylococcus haemolyticus; assay: Minimum inhibitory concentration against Staphylococcus haemolyticus in the presence of 30% bovine serum; format: functional

CN(Cc1ccc(C(=O)Oc2ccccc2)cc1)[C@H]1C(=O)N[C@@H]2Cc3ccc(cc3)Oc3cc4cc(c3O[C@@H]3OC(C(=O)O)C(O)[C@H](O)C3NCc3ccc(C(=O)Oc5ccccc5)cc3)Oc3ccc(cc3Cl)[C@@H](O)C3NC(=O)[C@H](NC(=O)[C@@H]4NC(=O)[C@@H](NC2=O)c2cc(cc(O)c2Cl)Oc2cc1ccc2O)c1ccc(O)c(c1)-c1c(O[C@H]2O[C@H](CO)[C@@H](O)[C@H](O)[C@@H]2O)cc(O)cc1[C@@H](C(=O)O)NC3=O (some centres undefined)
MIC [1]: > 128 µg/mL | MIC [2]: 1 µg/mL | MIC [3]: 4 µg/mL | MIC [4]: 16 µg/mL | MIC [5]: 2 µg/mL (≈ 1.01 µM) | MIC [6]: 4 µg/mL | MIC [7]: 1 µg/mL | MIC [8]: 2 µg/mL (≈ 1.01 µM) | MIC [9]: 64 µg/mL
